Data published in the supplement of paper PMC10307832.

Experiments:
Assay in all cases: relative viability (nuclei count vs DMSO), 5 days (fraction); higher = more cells survive
Vemurafenib + Navitoclax = compound: CCCS(=O)(=O)Nc1ccc(F)c(C(=O)c2c[nH]c3ncc(-c4ccc(Cl)cc4)cc23)c1F [Vemurafenib] + CC1(C)CCC(c2ccc(Cl)cc2)=C(CN2CCN(c3ccc(C(=O)NS(=O)(=O)c4ccc(N[C@H](CCN5CCOCC5)CSc5ccccc5)c(S(=O)(=O)C(F)(F)F)c4)cc3)CC2)C1 [Navitoclax] (partner 0.5 µM)
Method in brief: (§1)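 Lung cancer cell lines in 1536-well plates were dosed by pin tool the day after seeding, either with one drug alone or with a fixed anchor-drug dose plus five library-drug doses (not always all listed) in √10 steps. After 5 days, cells were fixed and their nuclei stained in one step (final 0.05% Triton X-100, 1% formaldehyde, 1 ug/ml Hoechst), then counted on 4× images. Relative viability is the nuclei count in treated wells divided by that in vehicle wells. Values are medians of duplicate plates.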

Vemurafenib + Phenformin = compound: CCCS(=O)(=O)Nc1ccc(F)c(C(=O)c2c[nH]c3ncc(-c4ccc(Cl)cc4)cc23)c1F [Vemurafenib] + N=C(N)NC(=N)NCCc1ccccc1 [Phenformin] (partner 250 µM)
Method in brief: as §1

Vemurafenib + Vorinostat = compound: CCCS(=O)(=O)Nc1ccc(F)c(C(=O)c2c[nH]c3ncc(-c4ccc(Cl)cc4)cc23)c1F [Vemurafenib] + O=C(CCCCCCC(=O)Nc1ccccc1)NO [Vorinostat] (partner 1 µM)
Method in brief: as §1

OSI-027 + Pictilisib = compound: COc1cccc2cc(-c3nc([C@H]4CC[C@H](C(=O)O)CC4)n4ncnc(N)c34)[nH]c12 [OSI-027] + CS(=O)(=O)N1CCN(Cc2cc3nc(-c4cccc5[nH]ncc45)nc(N4CCOCC4)c3s2)CC1 [Pictilisib] (partner 1 µM)
Method in brief: as §1

UMC-11
relative viability (Vemurafenib + Navitoclax; first compound 0.03162 µM): 0.336
relative viability (Vemurafenib + Navitoclax; first compound 0.1 µM): 0.327
relative viability (Vemurafenib + Navitoclax; first compound 0.3162 µM): 0.374
relative viability (Vemurafenib + Navitoclax; first compound 1 µM): 0.319
relative viability (Vemurafenib + Phenformin; first compound 0.03162 µM): 0.29
relative viability (Vemurafenib + Phenformin; first compound 0.1 µM): 0.315
relative viability (Vemurafenib + Phenformin; first compound 0.3162 µM): 0.227
relative viability (Vemurafenib + Phenformin; first compound 1 µM): 0.315
relative viability (Vemurafenib + Vorinostat; first compound 0.03162 µM): 0.383
relative viability (Vemurafenib + Vorinostat; first compound 0.1 µM): 0.439
relative viability (Vemurafenib + Vorinostat; first compound 0.3162 µM): 0.576
relative viability (Vemurafenib + Vorinostat; first compound 1 µM): 0.37
relative viability (OSI-027 + Pictilisib; first compound 0.01 µM): 0.739
relative viability (OSI-027 + Pictilisib; first compound 0.03162 µM): 1.03
relative viability (OSI-027 + Pictilisib; first compound 0.1 µM): 0.664
relative viability (OSI-027 + Pictilisib; first compound 0.3162 µM): 0.636
relative viability (OSI-027 + Pictilisib; first compound 1 µM): 0.412
